Series [1] addresses TSPO protein separated and purified from rat heart (Rattus norvegicus (Rat), UniProt P16257). In words: TSPO and radioligand (3H-PK11195) competitive binding test. Particulars: for Inhibition rate (%): n = 6 times. On the procedure:
In the present test, TSPO protein separated and purified from rat heart was used as screening target, via competitive binding test with radioligand (^3H-PK11195), to screen TSPO ligand compounds.
Wister rats, 220-260 g, female and male, were sacrificed by decapitation and the rat heart were rapidly separated, weighed and to which homogenized in 10 times volume of Tris-HCl buffer solution (50 mM Tris-HCl, 5 mM MgCl2, 1 mM EDTA, 0.5% (W/V) BSA, 1 mM PMSF, 3 μg/ml proteinase inhibitor, 0.1% NaN3, 0.32M sucrose, pH 7.4) at 15,000 rpm for 30 s, total 5 times. The homogenate was centrifuged under 1000×g for 10 minutes and the supernatant was then centrifuged under 30000×g for 20 minutes. The precipitate was collected, and resuspended with 10 times volume of Tris-HCl buffer solution (pH 7.4) relative to the original weight, then centrifuged under 30000×g for 20 minutes. The precipitate was washed with the same buffer solution, centrifuged under 30000×g for 20 minutes and the precipitate was suspended with the above buffer solution. After sub-packaged (the whole operation procedures were performed under ice bath), the product was stored at −80° C.
3) Competitive Binding Test of Drug to the Receptor (Rat Heart TSPO) and Radioligand (^3H-PK11195):
(1) tubes were placed in reaction condition of 30° C.
(2) all tubes were added with 20 μg of receptor protein in order;
(3) the test tubes were added in order with 20 μL of drugs in certain concentrations;
(4) the non-specific binding tubes were added with 20 μL of non-tagged ligand (PK11195), the final concentration of the non-tagged ligand was 0.1 mM, pre-reacted for 30 min;
(5) all tubes were added in order with 25 μL ^3H-PK11195, the final concentration of the labeled ligand was 1.5 nM;
(6) Tris-HCl Buffer pH7.4 was used to complement the reaction volumes of all tubes to reach 200 μL;
(7) the reaction was performed under 30° C. reaction condition for 1 h;
(8) Then samples were applied to 49-type glass fibre filter, vacuum suction filtered, then washed with 2 ml ice-cold Tris-HCl buffer solution (50 mM Tris-HCl buffer solution, 1 mM EDTA, 5 mM MgCl2, 1 mM PMSF, 0.1% NaN3, 3 μg/ml proteinase inhibitor, pH 7.4). The filter was dried and placed in a scintillation vial with 1 ml of scintillation fluid. The radio-activity was measured by a scintillation counter.

In series [2] the test system is mice. Nature of the series: Mice open field spontaneous locomotor activity test. Format: in vivo. As to conditions: intragastric. From the text: Experimental mechanism: the aim was to observe the effects of drugs on central nervous excitation, so as to exclude false positive reactions of anxiolytic or antidepressant effects caused by central nervous excitation.
1) Experimental device: the mice open field box was a colorless transparent organic glass box (30×36×25 cm), which bottom surface was divided into 9 lattices.
2) Experimental operation: Compound 8(8^#, YL-IPA08), Compound 10(10^#, YL-IPA10), Compound 11(11^#, YL-IPA11) and Compound 13(13^#, YL-IPA13) (separately having three dose groups of 0.03, 0.3, 3 mg/kg) and blank control (distilled water, DW) were administered intragastrically, and the test started after 55 min. During test, the mice were placed in the central area of the open field spontaneous locomotor activity observation box, started timing immediately, the spontaneous activities of mice within 5 min were recorded artificially (observation indexes: number of rearings, number of crossings).

Series [3] concerns mice. Nature of the series: Mice elevated plus maze test. Format: in vivo.
The test system of series [4] is mice. Nature of the series: Mice tail suspension test. Format: in vivo. An excerpt:
Experimental mechanism: mice tail suspension test was an acute behavioral despair model established by Steru et al (1985). […] This model was easy in operation, with good predictability, and was the most popular model for screening antidepressants. 1) Experimental device: an experimental frame with spacing boards which dividing the experimental frame into 2 experimental chambers (25×25×35 cm). A clamp is mounted on a through cross rod in the chamber. Male Kunming mice weighing 20-25 g. The mice were intragastrically administered with Compound 8, vehicle (distilled water, DW) or positive control drug (desipramine, DMI). After 1 h, wrap adhesive tape around the mouse's tail three quarters of the distance from the base of the tail and then suspend the animals by passing the suspension hook through the adhesive tape 5 cm above the table. The duration of immobility in the last 4 min of total 6 min test was recorded.

Series [5] has as its system mice. In words: Blocking effects of TSPO antagonist PK11195 on Compound 8 antidepressant activity in mice tail suspension test. Format: in vivo. As to conditions: 3 mg/kg, ip. On the procedure:
The optimum dose (0.1 mg/kg) of YL-IPA08 in antidepressant effect of mice in tail suspension model was used to perform drug antagonism test, and the method was identical to that of Example 43, except that PK11195 group and PK11195+Compound 8 antagonism group with single intraperitoneal injection (ip) were added, wherein the antagonism group was administered by intraperitoneal injection with PK11195 simultaneously when Compound 8 was intragastrially administered.
Statistic method: the results were expressed in mean±SEM. The result was determined by two-way analysis of variance, and Bonferroni test was used for group comparison.

Where [6] appears, read: doses 0.03, 0.3, 3 mg/kg, 55 min after dosing, 5 min observation.
Where [7] appears, read: 9 gradient concentrations, plotting and fitting.

The structures appear in SMILES notation.

This is an account of results in patent publication US8980887B2, “2-aryl imidazo[1,2-a]pyridine-3-acetamide derivatives, preparation methods and uses thereof” (Institute of Pharmacology, priority 2010, dated 2015).

For orientation: melting point means the temperature, or range, at which the solid turns liquid. Consider `CCN(Cc1ccncc1)C(=O)Cc1c(-c2ccc(Cl)c(Cl)c2)nc2cc(C)ccn12.Cl` [Compound 10, N-ethyl-N-(4-pyridinylmethyl)-2-(3,4-dichlorophenyl)-7-methylimidazo[1,2-a]pyridine-3-acetamide.hydrochloride], for which the melting point was in the range of 250 to 252 °C. In series [1] (1 × 10^−5M), the “Inhibition rate (%)” value came out at 100%. In addition, the “Inhibition rate (%)” value in series [1] (1 × 10^−7M) was 85%. Besides, the “Inhibition rate (%)” value in series [1] (1 × 10^−9M) is 23%. Further, the “number of rearings, number of crossings (open field spontaneous activity) versus control” value in the series with mice [2] (setting [6]) is “equivalent to those of the control”.
A word on the IC50: it is the concentration at which inhibition is half-maximal. A low value points to greater potency in that assay. A word on the Ki: it is the equilibrium dissociation constant of an inhibitor or competing ligand from its target. Consider `CCN(Cc1ccccc1)C(=O)Cc1c(-c2ccc(C)cc2)nc2cc(C)ccn12` [Compound 13, N-benzyl-N-ethyl-2-(4-methylphenyl)-7-methylimidazo[1,2-a]pyridine-3-acetamide], for which the melting point lay within 220 to 222 °C. The “Inhibition rate (%)” value in series [1] (1 × 10^−5M) is reported as 97%. Also, the “Inhibition rate (%)” value in series [1] (1 × 10^−7M) is recorded as 89%. Also, the “Inhibition rate (%)” value in series [1] (1 × 10^−9M) stood at 42%. In series [1] (setting [7]), the IC50 turned out to be 6.99 nM and the Ki was found to be 2.97 nM. Moreover, in the series on mice [2] (setting [6]), the “number of rearings, number of crossings (open field spontaneous activity) versus control” value was “apparently lower than the control”. For the same molecule, the “all elevated plus maze indexes versus control” value in the series with mice [3] (mice, dose 0.03, 0.3, 3 mg/kg) was “significantly lower than the control”.
As to `CNCCCN1c2ccccc2CCc2ccccc21` [desipramine, reference compound], the “minimum effective dose to generate antidepression activity” value in the series on mice [4] (mice tail suspension test) was 30 mg/kg.
For `CN1C(=O)CN=C(c2ccccc2)c2cc(Cl)ccc21` [diazepam, reference compound], the “minimum effective dose for generating anxiolytic-like effects” value in the series on mice [3] (mice elevated plus maze, ip) was found to be 2 mg/kg.
`CCC(C)N(C)C(=O)c1cc2ccccc2c(-c2ccccc2Cl)n1` (centres unmarked) [PK11195]: the “immobility time in mice tail suspension test, single administration versus control” value with mice [5] was “no significant influence”.
Regarding `COCCN(Cc1ccccn1)C(=O)Cc1c(-c2ccc(Cl)c(Cl)c2)nc2cc(C)ccn12.Cl` [Compound 11, N-(2-methoxyethyl)-N-(2-pyridinylmethyl)-2-(3,4-dichlorophenyl)-7-methylimidazo[1,2-a]pyridine-3-acetamide.hydrochloride], the melting point was in the range of 236 to 238 °C. The “Inhibition rate (%)” value in series [1] (1 × 10^−5M) was 100%. For the same molecule, the “Inhibition rate (%)” value in series [1] (1 × 10^−7M) was found to be 65%. Moreover, in series [1] (1 × 10^−9M), the “Inhibition rate (%)” value was 29%. Besides, the “number of rearings, number of crossings (open field spontaneous activity) versus control” value in the series on mice [2] (dose 3 mg/kg) is “equivalent to the control”. The “number of rearings, number of crossings (open field spontaneous activity) versus control” value in the series with mice [2] (doses 0.03 and 0.3 mg/kg) is on record as “lower than the control”.
In the case of `CCN(Cc1ccncc1)C(=O)Cc1c(-c2ccc(Cl)cc2)nc2ccc(C)cn12.Cl` [Compound 28, N-ethyl-N-(4-pyridinylmethyl)-2-(4-chlorophenyl)-6-methylimidazo[1,2-a]pyridine-3-acetamide.hydrochloride], the melting point was 229 to 231 °C. In addition, the “Inhibition rate (%)” value in series [1] (1 × 10^−5M) is 84%. Also, the “Inhibition rate (%)” value in series [1] (1 × 10^−7M) came out at 33%. In addition, the “Inhibition rate (%)” value in series [1] (1 × 10^−9M) worked out at 0%.
The matching figures for `COCCN(CCN1CCOCC1)C(=O)Cc1c(-c2ccc(C)cc2)nc2ccc(C)cn12.Cl` [Compound 26, N-(2-methoxyethyl)-N-(2-morpholinylethyl)-2-(4-methylphenyl)-6-methylimidazo[1,2-a]pyridine-3-acetamide.hydrochloride]: 245 to 247 °C, 48%, 1% and 0%.
`CCN(Cc1ccccn1)C(=O)Cc1c(-c2ccc(Cl)c(Cl)c2)nc2cc(C)ccn12.Cl` [Compound 8, N-ethyl-N-(2-pyridinylmethyl)-2-(3,4-dichlorophenyl)-7-methylimidazo[1,2-a]pyridine-3-acetamide.hydrochloride]: the melting point was in the range of 217 to 220 °C. Also, in series [1] (1 × 10^−5M), the “Inhibition rate (%)” value is reported as 100%. Besides, in series [1] (1 × 10^−7M), the “Inhibition rate (%)” value is listed as 89%. For the same molecule, the “Inhibition rate (%)” value in series [1] (1 × 10^−9M) was found to be 30%. In addition, in the series with mice [2] (setting [6]), the “number of rearings, number of crossings (open field spontaneous activity) versus control” value is recorded as “equivalent to those of the control”. For the same molecule, the “optimum dose in antidepressant effect” value in the series with mice [4] (mice tail suspension model) was determined as 0.1 mg/kg.
On to `CCN(Cc1ccncc1)C(=O)Cc1c(-c2ccc(Cl)cc2)nc2cc(C)ccn12.Cl` [Compound 4, N-ethyl-N-(4-pyridinylmethyl)-2-(4-chlorophenyl)-7-methylimidazo[1,2-a]pyridine-3-acetamide.hydrochloride], for which the melting point was 245 to 247 °C. In series [1] (1 × 10^−5M), the “Inhibition rate (%)” value worked out at 100%. Further, in series [1] (1 × 10^−7M), the “Inhibition rate (%)” value is 50%. Also, the “Inhibition rate (%)” value in series [1] (1 × 10^−9M) was 0%.
The molecule `CCN(Cc1cccnc1)C(=O)Cc1c(-c2ccc(Cl)c(Cl)c2)nc2cc(C)ccn12.Cl` [Compound 9, N-ethyl-N-(3-pyridinylmethyl)-2-(3,4-dichlorophenyl)-7-methylimidazo[1,2-a]pyridine-3-acetamide.hydrochloride] gave a melting point of 245 to 248 °C. Besides, the “Inhibition rate (%)” value in series [1] (1 × 10^−5M) is reported as 86%. In addition, the “Inhibition rate (%)” value in series [1] (1 × 10^−7M) came out at 8%. Moreover, the “Inhibition rate (%)” value in series [1] (1 × 10^−9M) is reported as 0%.
The like results for `COCCN(Cc1ccccn1)C(=O)Cc1c(-c2ccc(OC)cc2)nc2cc(C)ccn12.Cl` [Compound 23, N-(2-methoxyethyl)-N-(2-pyridinylmethyl)-2-(4-methoxyphenyl)-7-methylimidazo[1,2-a]pyridine-3-acetamide.hydrochloride] were, in that order, 214 to 216 °C (dec.), 85%, 2% and 3%.
Turning to `COCCN(Cc1cccnc1)C(=O)Cc1c(-c2ccc(Cl)cc2)nc2cc(C)ccn12.Cl` [Compound 6, N-(2-methoxyethyl)-N-(3-pyridinylmethyl)-2-(4-chlorophenyl)-7-methylimidazo[1,2-a]pyridine-3-acetamide.hydrochloride], the melting point lay in the range of 234 to 235 °C. Moreover, in series [1] (1 × 10^−5M), the “Inhibition rate (%)” value is on record as 70%. Further, in series [1] (1 × 10^−7M), the “Inhibition rate (%)” value is recorded as 0%. Moreover, the “Inhibition rate (%)” value in series [1] (1 × 10^−9M) was found to be 0%.
Take `COCCN(Cc1ccccn1)C(=O)Cc1c(-c2ccc(Cl)cc2)nc2cc(C)ccn12.Cl` [Compound 5, N-(2-methoxyethyl)-N-(2-pyridinylmethyl)-2-(4-chlorophenyl)-7-methylimidazo[1,2-a]pyridine-3-acetamide.hydrochloride]: the melting point lay within 238 to 239 °C. Further, in series [1] (1 × 10^−5M), the “Inhibition rate (%)” value is reported as 100%. Moreover, the “Inhibition rate (%)” value in series [1] (1 × 10^−7M) was found to be 43%. Also, in series [1] (1 × 10^−9M), the “Inhibition rate (%)” value is 0%.
